Reference: article PMC6832932, “Design and Selection of Novel C1s Inhibitors by In Silico and In Vitro Approaches” (Molecules, 2019)
Read-outs that look alike come from different tables or passages of the source.

Columns and labels:
[1] = molecular target: T1, C1s (Homo sapiens, UniProt P09871); assay: C1s inhibition IC50 assay (thioester substrate Z-Lys-SBzl with DTNB, photometric); type: biochemical; details: read-out: IC50 C1s
T1 construct: Recombinant C1s and C1r fragments (CCP1-CCP2-SP, the γB catalytic region); made in house
T1 sequence (P09871 438-688 limits assumed): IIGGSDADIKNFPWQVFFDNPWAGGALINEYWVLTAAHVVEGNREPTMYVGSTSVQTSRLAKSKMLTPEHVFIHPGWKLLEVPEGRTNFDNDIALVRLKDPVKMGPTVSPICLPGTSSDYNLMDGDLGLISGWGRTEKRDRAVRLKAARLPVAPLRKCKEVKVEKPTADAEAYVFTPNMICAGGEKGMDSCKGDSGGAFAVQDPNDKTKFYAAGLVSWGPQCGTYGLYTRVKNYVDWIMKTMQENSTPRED
From the text: (§1) Recombinant C1s and C1r fragments (CCP1-CCP2-SP, the γB catalytic region) containing the serine protease domain were expressed in E. Coli BL21(DE3)pLysS host strain (transformed with pET-17b vector) in form of inclusion bodies; proteins were isolated, renatured and purified as published earlier. Recombinant C1s, isolated in intact proenzyme form, was activated by limited proteolysis using the recombinant, autoactivated C1r fragment. Activated C1s and C1r were separated using Q Sepharose HP (Amersham Biosciences, Little Chalfont, UK) anion exchange chromatography.
40 µL enzyme + 10 µL inhibitor compounds were incubated (10 min, RT), and 50 µL substrate solution (1 mM final concentration) was added; incubated for 45 min and finally absorbance was read (405 nm) with a Perkin Elmer Wallac 1420 Victor2 microplate reader.

[2] = molecular target: T1, C1s; details: ref Subasinghe et al, 2004 [5]; read-out: Ki (C1s, thiopheneamidine inhibitors); cited from earlier work
[3] = molecular target: T2, Human isolated Factor Xa (Homo sapiens, UniProt P00742); assay: Factor Xa activity assay (fluorescent substrate Boc-Leu-Gly-Arg-AMC); type: biochemical; details: for remaining activity at 10 µM: 10 µM compound
T2 construct: purchased ThermoFisher Scientific (Waltham, MA, USA)
Experimental: Human isolated Factor Xa protein was purchased from ThermoFisher Scientific (Waltham, MA, USA). An end-point assay was carried out using the fluorescent amide substrate Boc-Leu-Gly-Arg-AMC used for C1s 10 µM screen; assay conditions: 20 mM HEPES (pH 7,8) 100 mM NaCl, 10 mM CaCl2 30 °C, 0.05% TWEEN-20, 1% DMSO; low enzyme concentration (about 1 nM); in a 96 well microplate format (in 100 µL), using non-binding black plates (Greiner).

[4] = molecular target: T1, C1s; assay: C1s focused library screening (fluorescent substrate Boc-Leu-Gly-Arg-AMC, 10 µM); type: biochemical
From the text: as §1
Two end-point assays have been developed for C1s inhibition assays: For screening assays a specific, fluorescent amide substrate Boc-Leu-Gly-Arg-AMC (Sigma, St. Louis, MO, USA), representing the cleavage site sequence of C2 was used with relatively high enzyme concentration (0.2 µM). Assay conditions: 20 mM HEPES (pH 7.4), 200 mM NaCl, 0.05% Tween20, 1% DMSO; 384 microplate format; 10 µL enzyme + 10 µL inhibitor compounds (final concentration: 10 µM); incubation time and temperature: 10 min, RT; then 20 µL substrate solution was added (1 mM final concentration); incubated (45 min, 30 °C) and the fluorescence have been read (355/460 nm; Wallac 1420 Victor2 microplate reader, Perkin Elmer, Waltham, MA, USA).

[5] = molecular target: T1, C1s; details: cited from earlier work
[6] = 1 mM Z-Lys-SBzl, enzyme below 1 nM
[7] = 1 mM ZLysSBzl, Figure S1 curves
[8] = 1 mM Z-Lys-SBzl, text and Figure S1

T2 sequence (P00742 235-488 limits assumed): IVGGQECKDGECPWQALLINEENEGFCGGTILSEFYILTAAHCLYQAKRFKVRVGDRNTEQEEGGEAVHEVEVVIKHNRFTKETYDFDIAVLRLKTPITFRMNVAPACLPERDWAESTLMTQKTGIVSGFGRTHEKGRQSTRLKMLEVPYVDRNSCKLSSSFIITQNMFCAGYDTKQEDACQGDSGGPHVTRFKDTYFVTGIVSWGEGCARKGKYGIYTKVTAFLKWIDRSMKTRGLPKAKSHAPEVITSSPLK
T2 sequence (P00742 41-179 partner limits assumed): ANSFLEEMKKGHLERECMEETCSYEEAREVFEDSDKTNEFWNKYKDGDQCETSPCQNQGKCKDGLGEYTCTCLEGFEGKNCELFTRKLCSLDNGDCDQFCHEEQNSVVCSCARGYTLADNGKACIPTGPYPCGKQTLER

Compound | IC50 [1, 6] [nM] | Ki [2] [nM] | remaining activity at 10 µM [3] [%] | further results
Cc1cccc2c(=O)nc(-c3ccco3)oc12 [Entry 23] | 41000 | – | – | –
COc1ccc(-c2csc(-c3cc(C(=N)N)sc3SC)n2)c(OC)c1 [CHEMBL286267] | – | 640 | – | –
O=C(c1ccc(-c2ccccc2)cc1)n1nnc2ccccc21 [Entry 7] | 3870 | – | 92.1 | –
CSc1sc(C(=N)N)cc1-c1nc(-c2cnn(-c3ccccc3)c2OCCC(C)C)cs1 [CHEMBL101698] | – | 1500 | – | –
N=C(N)c1cc(-c2nc(-c3ccccc3)cs2)cs1 [CHEMBL321519] | – | > 20000 | – | –
CSc1sc(C(=N)N)cc1-c1nc(-c2ccc3ccccc3c2)cs1 [CHEMBL29290] | – | 490 | – | –
O=C(c1ccc(C(=O)n2nnc3ccccc32)cc1)n1nnc2ccccc21 [1-[4-(1,2,3-benzotriazole-1-carbonyl)benzoyl]-1,2,3-benzotriazole] | – | – | – | C1s inhibitory activity (in words) [4]: inactive
CCCc1c(-c2csc(-c3cc(C(=N)N)sc3SC)n2)cnn1C [CHEMBL318576] | – | 330 | – | –
CCSc1sc(C(=N)N)cc1-c1nc(-c2ccccc2)cs1 [CHEMBL105102] | – | > 20000 | – | –
CSc1sc(C(=N)N)cc1-c1nc(-c2cnn(-c3ccccc3)c2OCC2CCC2)cs1 [CHEMBL102835] | – | 530 | – | –
CSc1sc(C(=N)N)cc1-c1nc(-c2cnccc2Cl)cs1 [CHEMBL28723] | – | 870 | – | –
Cc1sc(C(=N)N)cc1-c1nc(-c2ccccc2)cs1 [CHEMBL106071] | – | 6000 | – | –
Cc1sc2nc(-c3ccco3)oc(=O)c2c1C [Entry 17] | 549 | – | 100 | C1s inhibitory activity as reported in ChEMBL and PubChem (in words) ([5]; ref [9]): inactive
CCc1sc(C(=N)N)cc1-c1nc(-c2ccccc2)cs1 [CHEMBL441273] | – | 3000 | – | –
CSc1sc(C(=N)N)cc1-c1nc(-c2cnn(-c3ccccc3)c2)cs1 [CHEMBL322834] | – | 150 | – | –
CSc1sc(C(=N)N)cc1-c1nc(-c2ccc(Cl)cc2)cs1 [CHEMBL286243] | – | 436 | – | –
CSc1sc(C(=N)N)cc1-c1nc(-c2cccc(C)c2)cs1 [CHEMBL286498] | – | 960 | – | –
CSc1sc(C(=N)N)cc1-c1nc(-c2ccc(-c3ccccc3)cc2)cs1 [CHEMBL418023] | – | 15400 | – | –
O=c1nc(-c2cccs2)oc2cc(Cl)ccc12 [Entry 21] | 241 | – | 53.6 | IC50 [1, 7]: 240 nM
COc1ccccc1C(=O)n1nc(-c2ccco2)nc1SC [Entry 9] | 12 | – | 2.39 | IC50 [1, 8]: 11.6 nM; IC50 ([3]; 500 µM Boc-Leu-Gly-Arg-AMC): 1250 nM
CSc1sc(C(=N)N)cc1-c1nc(-c2cccs2)cs1 [CHEMBL31549] | – | 700 | – | –
O=c1nc(-c2ccco2)oc2ccc(Cl)cc12 [Entry 22] | 3600 | – | 0.14 | –

Compound | IC50 [1, 6] [nM] | Ki [2] [nM] | remaining activity at 10 µM [3] [%] | further results
CS(=O)(=O)c1sc(C(=N)N)cc1-c1nc(-c2ccccc2)cs1 [CHEMBL105652] | – | > 28000 | – | –
Cc1ccc(-c2nc3sc(C)c(C)c3c(=O)o2)cc1 [Entry 20] | ~50000 | – | – | –
CSc1sc(C(=N)N)cc1-c1nc(-c2ccccc2)cs1 [CHEMBL281899] | – | 560 | – | –
Cc1cc2c(=O)oc(-c3ccccc3Br)nc2s1 [Entry 18] | 845 | – | 46.1 | IC50 [1, 7]: 846 nM
O=C(c1ccc(F)c(F)c1)n1nnc2ccccc21 [Entry 6] | 2160 | – | 92.3 | –
CSc1sc(C(=N)N)cc1-c1nc(-c2cnn(C)c2)cs1 [CHEMBL102417] | – | 460 | – | –
CSc1nc(-c2ccco2)nn1C(=O)c1ccccc1 [Entry 11] | 94 | – | 26 | IC50 [1, 8]: 93.6 nM
CC(=O)Oc1ccc2nc(-c3ccco3)oc(=O)c2c1 [Entry 16] | 29000 | – | 77.6 | –
COc1sc(C(=N)N)cc1-c1nc(-c2ccccc2)cs1 [CHEMBL322207] | – | 14400 | – | –
N=C(N)c1cc(-c2nc(-c3ccccc3)cs2)c(C(F)(F)F)s1 [CHEMBL103840] | – | 12500 | – | –
O=C(c1ccc2c(c1)OCO2)C1C2C(=O)N(c3ccc4c(c3)OCCO4)C(=O)C2C2c3ccccc3C=CN12 (stereo not shown) [4,257,399] | – | – | – | IC50 ([5]; ref PubChem, read-out: IC50 C1s): 880 nM
O=c1oc(-c2ccco2)nc2ccc(Cl)cc12 [Entry 15] | 6700 | – | 82 | IC50 [1, 7]: 6680 nM
CSc1sc(C(=N)N)cc1-c1nc(-c2csc3ccccc23)cs1 [CHEMBL28875] | – | 450 | – | –
CSc1nc(-c2ccco2)nn1C(=O)c1ccco1 [7 965 558] | – | – | – | IC50 ([5]; seed compounds for 2D similarity search, ref PubChem [9],[10], read-out: IC50 (seed compounds)): 4480 nM
CCOc1c(-c2csc(-c3cc(C(=N)N)sc3SC)n2)cnn1-c1ccccc1 [CHEMBL321341] | – | 90 | – | –
CCOc1ccc(C(=O)n2nnc3ccccc32)cc1 [Entry 1] | 83 | – | 30.3 | IC50 [1, 8]: 83.3 nM
Cc1sc2nc(-c3ccccc3)oc(=O)c2c1C [Entry 19] | ~20000 | – | – | –
CSc1sc(C(=N)N)cc1-c1nc(Cc2ccccc2)cs1 [CHEMBL29269] | – | 1060 | – | –
CC(=O)Nc1ccc(C(=O)n2nnc3ccccc32)cc1 [Entry 2] | 91 | – | 43.1 | IC50 [1, 8]: 90.8 nM
CSc1sc(C(=N)N)cc1-c1nc(COc2ccccc2)cs1 [CHEMBL287292] | – | 520 | – | –
CCN(CC)c1ccc(C(=O)n2nnc3ccccc32)cc1 [Entry 8] | 5900 | – | 76.5 | –
COc1ccccc1-c1csc(-c2cc(C(=N)N)sc2SC)n1 [CHEMBL283080] | – | 850 | – | –

Compound | IC50 [1, 6] [nM] | Ki [2] [nM] | remaining activity at 10 µM [3] [%] | further results
CCCc1nn(C)cc1-c1csc(-c2cc(C(=N)N)sc2SC)n1 [CHEMBL106388] | – | 190 | – | –
CC(C)(C)c1ccc(C(=O)n2nnc3ccccc32)cc1 [Entry 4] | 1300 | – | 86.2 | –
COc1cc2nc(-c3ccco3)oc(=O)c2cc1OC [Entry 14] | 6440 | – | 61.4 | –
CSc1sc(C(=N)N)cc1-c1nc(-c2ccc(Cl)cc2Cl)cs1 [CHEMBL285142] | – | 3000 | – | –
CCOC(=O)CSc1nc(-c2cccnc2)nn1C(=O)c1ccccc1 [Entry 12] | 2400 | – | 85.4 | –
O=c1oc(-c2ccco2)nc2cc(Cl)ccc12 [Entry 13] | 474 | – | 98.6 | –
CCCOc1c(-c2csc(-c3cc(C(=N)N)sc3SC)n2)cnn1-c1ccccn1 [CHEMBL317917] | – | 70 | – | –
COc1cc(SC)ccc1C(=O)n1nnc2ccccc21 [Entry 3] | 240 | – | 4.93 | –
CSc1sc(C(=N)N)cc1-c1ncc(-c2ccccc2)s1 [CHEMBL322672] | – | 3250 | – | –
CSc1nc(-c2ccco2)nn1C(=O)c1ccc(F)cc1 [Entry 10] | 44 | – | 78.1 | IC50 [1, 8]: 43.6 nM
COc1cccc(-c2csc(-c3cc(C(=N)N)sc3SC)n2)c1 [CHEMBL29205] | – | 470 | – | –
CSc1sc(C(=N)N)cc1-c1nc(-c2cccnc2Cl)cs1 [CHEMBL285818] | – | 1020 | – | –
CSc1sc(C(=N)N)cc1-c1nc(-c2ccc(Cl)c([N+](=O)[O-])c2)cs1 [CHEMBL413764] | – | 860 | – | –
COc1ccc(C(=O)n2nnc3ccccc32)cc1OC [Entry 5] | 1850 | – | 48.3 | –
N=C(N)c1cc(-c2nc(-c3ccccc3)cs2)c(SCc2ccccc2)s1 [CHEMBL104368] | – | > 20000 | – | –
COc1ccc(-c2csc(-c3cc(C(=N)N)sc3SC)n2)cc1 [CHEMBL28618] | – | 900 | – | –
CSc1sc(C(=N)N)cc1-c1nc(-c2ccc([N+](=O)[O-])cc2)cs1 [CHEMBL29006] | – | 1000 | – | –
CSc1sc(C(=N)N)cc1-c1nc(-c2ccccc2C)cs1 [CHEMBL28949] | – | 850 | – | –
CSc1sc(C(=N)N)cc1-c1nc(-c2ccc(C)cc2)cs1 [CHEMBL29304] | – | 420 | – | –
CSc1sc(C(=N)N)cc1-c1nc(C2CCCCC2)cs1 [CHEMBL283859] | – | 4700 | – | –
